Experimental data reported in US12123010B2, “Plants having increased tolerance to herbicides” (BASF SE, priority 2017, dated 2024).

Legend:
[1] = tested on: Transgenic T2 Arabidopsis plants and ARBTH WT MC24 non-transgenic; assay: Greenhouse post spray test, injury 14 DAT (Tables ii, iii); assay type: in vivo, Arabidopsis thaliana; conditions: Arabidopsis thaliana, 336 h, Table ii; for pest or weed control at 50 g/ha: 50 g ai/ha; for pest or weed control at 100 g/ha: 100 g ai/ha; for pest or weed control at 200 g/ha: 200 g ai/ha;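 for all read-outs here: value is percent injury to the sprayed plants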
[2] = target: Wild Type PPO Enzyme (Amaranthus PPO2, SEQ ID NO: 1) (Amaranthus tuberculatus, UniProt Q0NZW9); assay: PPO enzyme assay (recombinant), wild type; assay type: biochemical
Wild Type PPO Enzyme (Amaranthus PPO2, SEQ ID NO: 1), sequence (Q0NZW9 1-534): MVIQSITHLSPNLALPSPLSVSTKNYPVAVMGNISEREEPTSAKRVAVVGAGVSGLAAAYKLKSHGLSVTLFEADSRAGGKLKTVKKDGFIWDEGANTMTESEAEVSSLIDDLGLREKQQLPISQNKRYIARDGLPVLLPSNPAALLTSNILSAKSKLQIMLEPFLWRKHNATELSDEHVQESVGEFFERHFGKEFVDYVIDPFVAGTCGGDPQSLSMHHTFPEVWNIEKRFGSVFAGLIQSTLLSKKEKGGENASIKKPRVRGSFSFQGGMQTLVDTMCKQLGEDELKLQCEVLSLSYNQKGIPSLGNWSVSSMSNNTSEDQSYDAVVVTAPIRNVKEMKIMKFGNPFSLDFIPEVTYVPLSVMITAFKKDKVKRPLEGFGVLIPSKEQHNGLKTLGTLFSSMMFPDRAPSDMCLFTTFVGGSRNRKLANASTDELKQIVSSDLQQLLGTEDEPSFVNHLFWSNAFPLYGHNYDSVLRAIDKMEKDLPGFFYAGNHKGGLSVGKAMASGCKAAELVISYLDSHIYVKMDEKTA

[3] = tested on: Variant PPO Enzyme L397E, F420M (Amaranthus PPO2); assay type: biochemical; conditions: variant L397E, F420M vs wild type
[4] = tested on: Variant PPO Enzyme R128A, F420M (Amaranthus PPO2); assay type: biochemical; conditions: variant R128A, F420M vs wild type

Cn1c(C(F)(F)F)cc(=O)n(-c2nc(Oc3ccccc3OCC(=O)NS(C)(=O)=O)c(Cl)cc2F)c1=O [Uracilpyridine 10, 2-[2-[[3-chloro-5-fluoro-6-[3-methyl-2,6-dioxo-4-(trifluoromethyl)pyrimidin-1-yl]-2-pyridyl]oxy]phenoxy]-N-methylsulfonyl-acetamide] showed a pest or weed control at 50 g/ha ([1]; ALOMY_PPO2_R137L_F438V event F) of 0%, a pest or weed control at 100 g/ha ([1]; ALOMY_PPO2_R137L_F438V event F) of 8% and a pest or weed control at 200 g/ha ([1]; ALOMY_PPO2_R137L_F438V event F) of 10%. For the same compound, the pest or weed control at 50 g/ha ([1]; ALOMY_PPO2_R137L_F438V event G) was 0%, the pest or weed control at 100 g/ha ([1]; ALOMY_PPO2_R137L_F438V event G) was 0% and the pest or weed control at 200 g/ha ([1]; ALOMY_PPO2_R137L_F438V event G) was 5%. For the same compound, the pest or weed control at 50 g/ha ([1]; AMATU_PPO2_L397E_F420V event D) was 0%, the pest or weed control at 100 g/ha ([1]; AMATU_PPO2_L397E_F420V event D) was 5% and the pest or weed control at 200 g/ha ([1]; AMATU_PPO2_L397E_F420V event D) was 13%. For the same compound, the pest or weed control at 50 g/ha ([1]; AMATU_PPO2_L397E_F420V event L) was 8%, the pest or weed control at 100 g/ha ([1]; AMATU_PPO2_L397E_F420V event L) was 53% and the pest or weed control at 200 g/ha ([1]; AMATU_PPO2_L397E_F420V event L) was 20%. For the same compound, the pest or weed control at 50 g/ha ([1]; AMATU_PPO2_R128A_F420V event A) was 38%, the pest or weed control at 100 g/ha ([1]; AMATU_PPO2_R128A_F420V event A) was 53% and the pest or weed control at 200 g/ha ([1]; AMATU_PPO2_R128A_F420V event A) was 68%. It also gave a pest or weed control at 50 g/ha ([1]; AMATU_PPO2_R128A_F420V event D) of 30%, a pest or weed control at 100 g/ha ([1]; AMATU_PPO2_R128A_F420V event D) of 78% and a pest or weed control at 200 g/ha ([1]; AMATU_PPO2_R128A_F420V event D) of 88%. For the same compound, the pest or weed control at 1 g/ha ([1]; AMATU_PPO2_WT event Q, 1 g ai/ha) was 58%, the pest or weed control at 5 g/ha ([1]; AMATU_PPO2_WT event Q, 5 g ai/ha) was 100% and the pest or weed control at 10 g/ha ([1]; AMATU_PPO2_WT event Q, 10 g ai/ha) was 100%. For the same compound, the pest or weed control at 30 g/ha ([1]; AMATU_PPO2_WT event Q, 30 g ai/ha) was 100%, the pest or weed control at 1 g/ha ([1]; ARBTH WT MC24 non-transgenic, 1 g ai/ha + 1% MSO) was 100% and the pest or weed control at 5 g/ha ([1]; ARBTH WT MC24 non-transgenic, 5 g ai/ha + 1% MSO) was 100%. It also gave a pest or weed control at 10 g/ha ([1]; ARBTH WT MC24 non-transgenic, 10 g ai/ha + 1% MSO) of 100%, a pest or weed control at 30 g/ha ([1]; ARBTH WT MC24 non-transgenic, 30 g ai/ha + 1% MSO) of 100% and a pest or weed control at 80 g/ha ([1]; ARBTH WT MC24 non-transgenic, 80 g ai/ha + 1% MSO) of 100%. It also gave a pest or weed control at 5 g/ha ([1]; ARBTH_PPO1_S305L_Y426M event O, 5 g ai/ha) of 10%, a pest or weed control at 10 g/ha ([1]; ARBTH_PPO1_S305L_Y426M event O, 10 g ai/ha) of 8% and a pest or weed control at 30 g/ha ([1]; ARBTH_PPO1_S305L_Y426M event O, 30 g ai/ha) of 99%. The pest or weed control at 80 g/ha ([1]; ARBTH_PPO1_S305L_Y426M event O, 80 g ai/ha) was 99%, the pest or weed control at 1 g/ha ([1]; ARBTH_PPO1_WT event Q, 1 g ai/ha) was 50% and the pest or weed control at 5 g/ha ([1]; ARBTH_PPO1_WT event Q, 5 g ai/ha) was 98%. The pest or weed control at 10 g/ha ([1]; ARBTH_PPO1_WT event Q, 10 g ai/ha) was 100%, the pest or weed control at 30 g/ha ([1]; ARBTH_PPO1_WT event Q, 30 g ai/ha) was 100% and the IC50 [2] was 0.212 nM. The “Tolerance Factor (R/S)” value [3] was 30714 and the “Tolerance Factor (R/S)” value [4] was 7879.
